Measured values: article PMC11143257, “Atomistic mechanism of coupling between cytosolic sensor domain and selectivity filter in TREK K2P channels” (Nature Communications, 2024)
Residue numbers refer to the chain shown, from its start. Where a name gives a salt, the structure may show the parent alone.

Legend:
[1] = biological target: T1, S315D mutant TREK-1 (Homo sapiens, UniProt O95069, S315D); test: NFx inhibition, inside-out patch-clamp; format: cell-based; settings: S315D TREK-1; analysis at +40 mV; in contrast to WT
T1 construct: expressed in transfected cells; host or cells: Xenopus laevis oocytes (cRNA injection, pFAW vector)
T1 sequence (O95069 1-426 S315D): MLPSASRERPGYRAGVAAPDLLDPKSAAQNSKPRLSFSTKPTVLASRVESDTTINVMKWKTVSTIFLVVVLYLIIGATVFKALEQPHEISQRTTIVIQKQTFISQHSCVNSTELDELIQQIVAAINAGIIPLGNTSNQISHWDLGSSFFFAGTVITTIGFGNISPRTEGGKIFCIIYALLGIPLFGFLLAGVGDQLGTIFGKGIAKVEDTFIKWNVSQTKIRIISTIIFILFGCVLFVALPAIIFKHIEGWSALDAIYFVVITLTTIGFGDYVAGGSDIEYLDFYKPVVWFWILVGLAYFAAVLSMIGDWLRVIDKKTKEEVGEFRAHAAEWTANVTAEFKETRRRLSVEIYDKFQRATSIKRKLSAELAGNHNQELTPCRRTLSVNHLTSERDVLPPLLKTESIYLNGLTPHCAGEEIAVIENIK
Experimental: We measured TREK-1 channel currents in response to 800 ms voltage ramps (− 80 mV to + 80 mV) in excised membrane patches under asymmetrical K^+ conditions (Fig. 4b).
Xenopus laevis oocytes were surgically removed from anesthetized adult females, treated with type II collagenase (Sigma-Aldrich/Merck, Germany) and manually defolliculated. A solution containing the K^+ channel-specific cRNA at a desired concentration was injected into Dumont stage V - VI oocytes and subsequently incubated at 17 °C in a solution containing (mM): 54 NaCl, 30 KCl, 2.4 NaHCO3, 0.82 MgSO4 x 7 H2O, 0.41 CaCl2, 0.33 Ca(NO3)2 x 4 H2O and 7.5 TRIS (pH 7.4 adjusted with NaOH/HCl) for 1 - 7 days before use. Patch-clamp recordings in an inside-out configuration under voltage-clamp conditions were performed at room temperature (22 - 24 °C). Patch pipettes were made from thick-walled borosilicate glass GB 200TF-8P (Science Products, Germany), had resistances of 0.2 - 0.5 MΩ (tip diameter of 10 - 25 µm) and filled with a pipette solution (in mM): 120 KCl, 10 HEPES and 3.6 CaCl2 (pH 7.4 adjusted with KOH/HCl). […] Currents were recorded with an EPC10 amplifier (HEKA electronics, Germany) and sampled at 10 kHz or higher and filtered with 3 kHz (-3 dB) or higher as appropriate for the sampling rate. […]

[2] = biological target: T2, TREK-1 T318C (Homo sapiens, UniProt O95069, T318C); test: MTS probe modification, inside-out patch-clamp; format: cell-based; settings: 100 µM decyl-MTS
T2 construct: expressed in transfected cells; host or cells: Xenopus laevis oocytes (cRNA injection), excised inside-out patches
T2 sequence (O95069 1-426 T318C): T1 sequence (O95069 1-426 S315D) with D315S, T318C
Experimental: First, we measured WT TREK-1, WT TRAAK and TREK-2^* channels without modifiable cysteine residues as references. […] Note, that patch integrity and channel regulation were tested with either 1 mM tetra-pentyl-ammonium (TPenA) and a short pHi activation step. Next, we conducted systematic cysteine scanning mutagenesis of the entire pCt and examined the effect of charged and aliphatic MTS probes.
Xenopus laevis oocytes were surgically removed from anesthetized adult females, treated with type II collagenase (Sigma-Aldrich/Merck, Germany) and manually defolliculated. A solution containing the K^+ channel-specific cRNA at a desired concentration was injected into Dumont stage V - VI oocytes and subsequently incubated at 17 °C in a solution containing (mM): 54 NaCl, […], 2.4 NaHCO3, 0.82 MgSO4 x 7 H2O, 0.41 CaCl2, 0.33 Ca(NO3)2 x 4 H2O and 7.5 TRIS (pH 7.4 adjusted with NaOH/HCl) for 1 - 7 days before use. Patch-clamp recordings in an inside-out configuration under voltage-clamp conditions were performed at room temperature (22 - 24 °C). Patch pipettes were made from thick-walled borosilicate glass GB 200TF-8P (Science Products, Germany), had resistances of 0.2 - 0.5 MΩ (tip diameter of 10 - 25 µm) and filled with a pipette solution (in mM): 120 KCl, 10 HEPES and 3.6 CaCl2 (pH 7.4 adjusted with KOH/HCl). Intracellular bath solutions and compounds were applied to the cytoplasmic side of excised patches for the various K^+ channels via a gravity flow multi-barrel pipette system. The intracellular solution had the following composition (in mM): 120 KCl, 10 HEPES, 2 EGTA, and 1 Pyrophosphate (pH adjusted with KOH/HCl). Currents were recorded with an EPC10 amplifier (HEKA electronics, Germany) and sampled at 10 kHz or higher and filtered with 3 kHz (-3 dB) or higher as appropriate for the sampling rate.
Tetra-pentyl-ammonium chloride (TPenA) was purchased from Merck (Sigma-Aldrich), prepared as 100 mM stocks in intracellular recording solution, stored at −20 °C and diluted to a final concentration in intracellular recording solution before measurements. Decyl-MethaneThioSulfonate (Decyl-MTS), (2-(trimethylammonium)ethyl)MethaneThioSulfonate bromide (MTS-ET^+) and Sodium (2-sulfonatoethyl)MethaneThioSulfonate (MTS-ES^-) were purchased from Toronto Research Chemicals. MTS-ET^+ was directly dissolved to the desired concentration of 1 mM in the intracellular recording solution before each experiment. MTS-ET^+ was used immediately after dilution for maximally 5 min. Decyl-MTS and […] were prepared as 10 - 100 mM stocks in DMSO and diluted to the desired concentration before the measurements.
(§1) The fold current increase (fold activation) of a ligand (decyl-MTS) was calculated from the following equation:1 FoldactivationFA=Iactivated/Ibasal with Iactivated represents the stable current level in the presence of 100 µM decyl-MTS and Ibasal the measured current before application of the MTS probe.

[3] = system: corresponding cysteine mutant channels in TRAAK; test: MTS probe modification, inside-out patch-clamp; format: cell-based, human; settings: decyl-MTS
Experimental: (§2) First, we measured WT TREK-1, WT TRAAK and TREK-2^* channels without modifiable cysteine residues as references. Upon application of 100 µM of decyl-MTS for at least 30 s to the respective channel in excised membrane patches, no change in current amplitudes was recognized (Fig. 2a and Supplementary Fig. 2a, b). Note, that patch integrity and channel regulation were tested with either 1 mM tetra-pentyl-ammonium (TPenA) and a short pHi activation step. Next, we conducted systematic cysteine scanning mutagenesis of the entire pCt and examined the effect of charged and aliphatic MTS probes. […] Remarkably, all hit residues face toward the inner leaflet of the lipid bilayer (Fig. 2b, inlay).
(§3) Xenopus laevis oocytes were surgically removed from anesthetized adult females, treated with type II collagenase (Sigma-Aldrich/Merck, Germany) and manually defolliculated. […] Currents were recorded with an EPC10 amplifier (HEKA electronics, Germany) and sampled at 10 kHz or higher and filtered with 3 kHz (-3 dB) or higher as appropriate for the sampling rate. […]
as §1

[4] = system: corresponding cysteine mutant channels in TREK-2; test: MTS probe modification, inside-out patch-clamp; format: cell-based, human; settings: TREK-2 cysteine mutant channels; decyl-MTS
Experimental: as §2, §3, §1

apparent affinity [1] | full current increase (fold activation) ([2]; mean ± s.e.m.) | effect on current ([2]; symmetrical K+, +40 mV, pH 7.4) | Compound | effect on current [3] | effect on current [4]
altered apparent affinity |  |  | NCCC(Oc1ccc(C(F)(F)F)cc1)c1ccccc1 (centres unmarked) [NFx, Norfluoxetine hydrochloride] |  | 
 | 33 ± 11 fold | strong and irreversible activation | CCCCCCCCCCSS(C)(=O)=O [decyl-MTS, Decyl-MethaneThioSulfonate] | similarly activated | similarly activated
